In patent US8129409B2, “Piperidine derivatives and cosmetic compositions thereof” (L'Oreal, priority 2004, dated 2012):

Assays:
[1] = test system: human striated muscle cells innervated with explants of rat embryonic rachidian ganglia and spinal cord; assay: nerve/muscle coculture model, muscle fibre contractions; format: cell-based
Experimental: The compound of Example 1 was tested on a model of nerve/muscle coculture, which makes it possible to recreate a motor arc by innervating human striated muscle cells with explants of rat embryonic rachidian ganglia and spinal cord.
Human muscle cells, obtained from samples of striated muscle from healthy donors, are inoculated into wells of cross section 1.8 cm^2 (24-well culture dishes). After culturing for ten days, these cells form a monolayer and fuse. At this stage, explants of embryonic spinal cord from a 13 day-old rat, containing the rachidian ganglia, are placed on the culture.
The growth of the neurites is visible beyond the spinal cord explant after one day of culture. The first contractions of the muscle fibres are observed after five to six days of coculture, and after three weeks all the muscle fibres in the region of the explants contract.
The cocultures are used after 21 days, when the muscle fibres are striated and contain mature differentiated neuromuscular junctions.
A muscle fibre showing regular contractions (at least 60 contractions per minute) is then selected from three different culture wells and the number of contractions is counted over 30 seconds. The test compound, diluted in DMSO, is then incubated for 60 seconds in these wells, at a concentration of 10^−5 M. At the end of incubation, the number of contractions is again counted over 30 seconds. […]

[2] = anti-wrinkle activity in vivo; conditions: no details given

Structure (SMILES)	contractions of the fibre as % of its contractions before addition of the compound ([1]; 10^−5 M, diluted in DMSO, 60 seconds incubation (one minute after adding), contractions counted over 30 seconds, triplicate) [%]	effect on muscle fibre contractions in the nerve/muscle coculture model ([1]; as demonstrated by the Applicant, no concentration given)	anti-wrinkle activity in vivo [2]
c1ccc(CCCC2CCN(CCCc3ccccc3)CC2)cc1 [Example 1, 1,4-bis(3-phenylpropyl)piperidine]	55		
CN1C(=O)CN=C(c2ccccc2)c2cc(Cl)ccc21 [diazepam]		inhibited muscle fibre contractions	demonstrated in vivo
